Measured values taken from ChEMBL document CHEMBL1201862, “PubChem BioAssay data set” (2004).
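How tested: cells in 96-well plates exposed to compound for 48 hours at five concentrations. GI50 = concentration required for 50% inhibition of growth.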 Calls of active or inactive are those of the source. No stated cut-off is given here; in the data, active = GI50 up to about 1.1 µM and inactive = higher.

Legend:
Assay in all cases: growth of human tumour cells (NCI), 48 h
786-0 = system: 786-0
A498 = system: A498
A549 = system: A549
ACHN = system: ACHN
BT-549 = system: BT-549
CAKI-1 = system: CAKI-1
CCRF-CEM = system: CCRF-CEM
COLO 205 = system: COLO 205
DU-145 = system: DU-145
EKVX = system: EKVX
HCC 2998 = system: HCC 2998
HCT-116 = system: HCT-116
HCT-15 = system: HCT-15
HL-60 = system: HL-60
HOP-62 = system: HOP-62
HOP-92 = system: HOP-92
HT-29 = system: HT-29
Hs-578T = system: Hs-578T
IGROV-1 = system: IGROV-1
K562 = system: K562
KM12 = system: KM12
LOX IMVI = system: LOX IMVI
M14 = system: M14
MCF7 = system: MCF7
MDA-MB-231 = system: MDA-MB-231
MDA-MB-435 = system: MDA-MB-435
MDA-N = system: MDA-N
MOLT-4 = system: MOLT-4
Malme-3M = system: Malme-3M
NCI-H226 = system: NCI-H226
NCI-H23 = system: NCI-H23
NCI-H460 = system: NCI-H460
NCI-H522 = system: NCI-H522
NCI/ADR-RES = system: NCI/ADR-RES
OVCAR-3 = system: OVCAR-3
OVCAR-4 = system: OVCAR-4
OVCAR-5 = system: OVCAR-5
OVCAR-8 = system: OVCAR-8
PC-3 = system: PC-3
RPMI-8226 = system: RPMI-8226
RXF 393 = system: RXF 393
SF-268 = system: SF-268
SF-295 = system: SF-295
SF-539 = system: SF-539
SK-MEL-28 = system: SK-MEL-28
SK-MEL-2 = system: SK-MEL-2
SK-MEL-5 = system: SK-MEL-5
SK-OV-3 = system: SK-OV-3
SN12C = system: SN12C
SNB-19 = system: SNB-19
SNB-75 = system: SNB-75
SR = system: SR
SW-620 = system: SW-620
T47D = system: T47D
TK-10 = system: TK-10
U-251 = system: U-251
UACC-257 = system: UACC-257
UACC-62 = system: UACC-62
UO-31 = system: UO-31

Measured: GI50

C=C1[C@@H](O)C[C@@]23CC[C@@H]4[C@@]5(C)CC[C@@H](OC(C)=O)C(C)(C)[C@@H]5C[C@@H](OC5OC(COC(C)=O)C(O)C(O)C5O)[C@@]4(C)C2=CC[C@H]3[C@H]1C (stereo not given in full)
inactive: 786-0 6.14 µM | A498 9.73 µM | A549 4.49 µM | ACHN 9.12 µM | BT-549 8.17 µM | CAKI-1 13.1 µM | CCRF-CEM 2.97 µM | COLO 205 2 µM | DU-145 10.5 µM | EKVX 10.2 µM | HCC 2998 1.75 µM | HCT-116 3.43 µM | HL-60 2.27 µM | HOP-62 11.7 µM | HOP-92 7.38 µM | HT-29 2.1 µM | Hs-578T 5.66 µM | IGROV-1 3.8 µM | K562 2.99 µM | KM12 2.1 µM | LOX IMVI 3.01 µM | M14 4.49 µM | MCF7 2.14 µM | MDA-MB-231 5.47 µM | MDA-MB-435 4.51 µM | MDA-N 5.16 µM | MOLT-4 2.5 µM | Malme-3M 9.48 µM | NCI-H226 4.43 µM | NCI-H23 10.7 µM | NCI-H460 4.13 µM | NCI-H522 5.35 µM | NCI/ADR-RES 17.5 µM | OVCAR-3 3.72 µM | OVCAR-4 5.57 µM | OVCAR-5 2.22 µM | OVCAR-8 7.13 µM | PC-3 3.66 µM | RPMI-8226 2.84 µM | RXF 393 4.27 µM | SF-268 4.82 µM | SF-295 4.06 µM | SF-539 11.8 µM | SK-MEL-28 7.35 µM | SK-MEL-2 2.34 µM | SK-MEL-5 4 µM | SK-OV-3 13.1 µM | SN12C 7.98 µM | SNB-19 4.93 µM | SNB-75 3.96 µM | SR 2.33 µM | SW-620 6.44 µM | T47D 5.09 µM | TK-10 8.41 µM | U-251 3.03 µM | UACC-257 11.6 µM | UACC-62 6.07 µM | UO-31 14.1 µM
12.4 µM: HCT-15

COc1ccccc1C(=O)NCC1CCCN2CCCCC12 (stereo not given)
inactive: 786-0 > 100 µM | A498 > 100 µM | A549 93.3 µM | ACHN > 100 µM | BT-549 > 100 µM | CAKI-1 > 100 µM | CCRF-CEM > 100 µM | COLO 205 > 100 µM | DU-145 > 100 µM | EKVX > 100 µM | HCC 2998 > 100 µM | HCT-116 > 100 µM | HL-60 > 100 µM | HOP-62 > 100 µM | HOP-92 > 100 µM | HT-29 > 100 µM | Hs-578T > 100 µM | IGROV-1 > 100 µM | K562 > 100 µM | KM12 > 100 µM | LOX IMVI > 100 µM | M14 > 100 µM | MCF7 > 100 µM | MDA-MB-231 > 100 µM | MDA-MB-435 > 100 µM | MDA-N > 100 µM | MOLT-4 > 100 µM | Malme-3M > 100 µM | NCI-H226 > 100 µM | NCI-H23 > 100 µM | NCI-H460 > 100 µM | NCI-H522 > 100 µM | NCI/ADR-RES > 100 µM | OVCAR-3 > 100 µM | OVCAR-4 > 100 µM | OVCAR-5 > 100 µM | OVCAR-8 > 100 µM | PC-3 > 100 µM | RPMI-8226 > 100 µM | RXF 393 > 100 µM | SF-268 > 100 µM | SF-295 1.24 µM | SF-539 > 100 µM | SK-MEL-28 > 100 µM | SK-MEL-2 > 100 µM | SK-MEL-5 > 100 µM | SK-OV-3 > 100 µM | SN12C > 100 µM | SNB-19 > 100 µM | SNB-75 > 100 µM | SR > 100 µM | SW-620 > 100 µM | T47D > 100 µM | TK-10 > 100 µM | U-251 > 100 µM | UACC-257 > 100 µM | UACC-62 > 100 µM | UO-31 > 100 µM
> 100 µM: HCT-15

c1ccc([P+](CC[P+](c2ccccc2)(c2ccccc2)c2ccccc2)(c2ccccc2)c2ccccc2)cc1
29 µM: HCT-15
inactive: 786-0 21.9 µM | A498 5.87 µM | A549 2.49 µM | ACHN 19.2 µM | BT-549 42.3 µM | CAKI-1 61.8 µM | COLO 205 8.81 µM | DU-145 48.9 µM | EKVX 4.76 µM | HCC 2998 7.78 µM | HCT-116 16.5 µM | HOP-62 26.4 µM | HOP-92 32.6 µM | HT-29 23.4 µM | Hs-578T 7.98 µM | IGROV-1 38 µM | K562 2.44 µM | KM12 15.2 µM | LOX IMVI 63 µM | M14 22.3 µM | MCF7 32.1 µM | MDA-MB-231 38.6 µM | MDA-MB-435 9.64 µM | MDA-N 14.4 µM | MOLT-4 12.6 µM | Malme-3M 14.1 µM | NCI-H226 > 56.8 µM | NCI-H23 26.3 µM | NCI-H460 5.79 µM | NCI-H522 3.1 µM | NCI/ADR-RES 61.4 µM | OVCAR-3 13 µM | OVCAR-4 34.3 µM | OVCAR-5 44.4 µM | OVCAR-8 4.82 µM | PC-3 6.27 µM | RXF 393 27.4 µM | SF-268 6.05 µM | SF-295 33.7 µM | SF-539 9.42 µM | SK-MEL-28 13.7 µM | SK-MEL-2 9.38 µM | SK-MEL-5 8.79 µM | SK-OV-3 > 84.9 µM | SN12C 9.31 µM | SNB-19 47.4 µM | SNB-75 20.1 µM | SR 14.7 µM | SW-620 3.62 µM | T47D 4.34 µM | TK-10 12.3 µM | U-251 2.94 µM | UACC-257 1.19 µM | UACC-62 25.6 µM | UO-31 > 46.1 µM
active: CCRF-CEM 0.25 µM | HL-60 0.396 µM | RPMI-8226 0.693 µM

N=c1c2c(=S)n(-c3ccccc3)c(=S)n(-c3ccccc3)c2nc(SCCCN2CCCCC2)n1-c1ccccc1
active: 786-0 1.09 µM | CCRF-CEM 0.413 µM | LOX IMVI 0.91 µM | MCF7 0.329 µM | MOLT-4 0.118 µM | RPMI-8226 0.439 µM | SR 0.558 µM
1.55 µM: HCT-15
inactive: A498 2.52 µM | A549 1.83 µM | ACHN 1.7 µM | BT-549 1.75 µM | CAKI-1 1.77 µM | COLO 205 1.77 µM | DU-145 1.66 µM | EKVX 1.98 µM | HCC 2998 1.49 µM | HCT-116 1.73 µM | HL-60 1.81 µM | HOP-62 1.76 µM | HOP-92 1.78 µM | HT-29 2.09 µM | Hs-578T 2.79 µM | IGROV-1 1.5 µM | K562 1.48 µM | KM12 1.82 µM | M14 1.69 µM | MDA-MB-231 1.64 µM | MDA-MB-435 1.75 µM | MDA-N 1.77 µM | Malme-3M 1.73 µM | NCI-H226 2.35 µM | NCI-H23 1.98 µM | NCI-H460 1.93 µM | NCI-H522 1.53 µM | NCI/ADR-RES 2.91 µM | OVCAR-3 1.65 µM | OVCAR-4 1.81 µM | OVCAR-5 11.5 µM | OVCAR-8 1.85 µM | PC-3 1.66 µM | RXF 393 1.64 µM | SF-268 1.99 µM | SF-295 4.91 µM | SF-539 2.93 µM | SK-MEL-28 2.11 µM | SK-MEL-2 1.94 µM | SK-MEL-5 1.86 µM | SK-OV-3 2.26 µM | SN12C 1.78 µM | SNB-19 2.91 µM | SNB-75 1.73 µM | SW-620 2.11 µM | T47D 2.14 µM | TK-10 1.71 µM | U-251 1.74 µM | UACC-257 1.75 µM | UACC-62 1.64 µM
